How the values were obtained:
[1] = system: human cervix adenocarcinoma (Hela); assay: Anti-cancer activity in vitro, MTT; format: cell-based
Protocol: (§1) In order to find out anticancer activity in vitro of the poly(organophosphazene) conjugated with anti-cancer drug of the present invention, the trial as follows was performed about the human breast adenocarcinoma (MCF-7, the Korea Cell Line Bank) and the human cervix adenocarcinoma (Hela, the Korea Cell Line Bank).
(§2) For the in vitro cell experiment, in order to measure the genesistasis concentration to 50% (IC50) toward the cancer cell of the poly(organophosphazene) conjugated with anticancer drug, the analytical method using 3-(4,5-dimethylthiazol-2-yl)-2,5-diphenyl-2H-tetrazolium bromide (MTT) was performed [T. Mosmann, J. Immunol. Method, 65, (1985) 55].
(§3) The materials for to measuring were respectively melted in the DMSO (dimethylsulfoxide) of the small amount, and they were diluted to the distilled water with 200 times. The materials solution were added to the cancer cell that is MCF-7(the Korea Cell Line Bank) and Hela (the Korea Cell Line Bank). Then, they were added to 96-well microtiter plater to 1.0×10^4 cell/ml (the concentration of the cancer cell). And they were cultivated for 2, 3, 4 days, respectively, with 37° C. in 5% CO2 condition.
(§4) MTT solution (20 μl) was mixed the cultivated cell with, and they were more cultivated for 4 hours with 37° C. in 5% CO2 condition. After the upper culture medium of each cell was removed, DMSO (100 μl) was added to a well and they were shaken in the room temperature to the plate shaker with for 20 minutes, thereby dissolving the formazan crystal generated by reducing of MTT.

[2] = system: human breast adenocarcinoma (MCF-7); assay: Anti-cancer activity in vitro, MTT; format: cell-based
Protocol: as §1, §2, §3, §4

[3] = Sol-gel phase transition with change of temperature (Brookfield rheometer); format: physicochemical
Protocol: The poly(organophosphazene) conjugated with a drug or bioactivemolecules obtained in Examples 1 to 11 were respectively dissolved in phosphate buffered saline (pH 7.4) at 4° C. so as to make solutions with concentrations of 10 wt %. The solutions were put into a chamber of a Brookfield DV-III+ Rheometer equipped with a thermostatic bath (TC-501).

[4] = Hydrolysis of the polymer with time by GPC molecular weight; format: physicochemical; details: 10 wt % in PBS pH 7.4, 37° C., compared among Examples 3, 4 and 9
[5] = 10 wt % in phosphate buffered saline (pH 7.4)

Q: Which “Anti-cancer activity [IC50]” value ([1]; 2nd day) does the source give for “poly[(isoleucineethylester)(aminomethoxypolyethyleneglycol 550)(glycylglycine)(glycylglycyldoxorubicin)phosphazene] [Example 3]” here?
A: 1.477 µg/mL

Q: And the “Anti-cancer activity [IC50]” value ([1]; 3rd day)?
A: 1.065 µg/mL

Q: What about the “Anti-cancer activity [IC50]” value ([1]; 4th day) of the same substance?
A: 0.605 µg/mL

Q: And the “Anti-cancer activity [IC50]” value ([2]; MCF-7, 2nd day)?
A: 2.294 µg/mL

Q: And the “Anti-cancer activity [IC50]” value ([2]; MCF-7, 3rd day)?
A: 0.926 µg/mL

Q: And the “Anti-cancer activity [IC50]” value ([2]; MCF-7, 4th day)?
A: 0.798 µg/mL

Q: And the “Gel solidity (maximum viscosity of the polymer solution)” value [3, 5]?
A: 158 Pa · s

Q: What about the “Max. gelling temp. (temperature where the viscosity of the polymer solution reaches the maximum point)” value [3, 5] of the same substance?
A: 38 °C

Q: And the “viscosity in 37° C.” value ([3]; compared among Examples 3, 4 and 9)?
A: the highest viscosity

Q: What about the “speed of hydrolysis (reduced molecular weight by GPC)” value [4] of the same substance?
A: the most slowly hydrolyzed

— US8287888B2, “Thermosensitive polyphosphazene-bioactive molecule conjugates, preparation method thereof and use thereof” (Korea Institute of Science and Technology, priority 2006, dated 2012)
